The compounds below were run on microfilariae of Dirofilaria immitis (assay: Dirofilaria immitis, Microfilaria (DiMF) In vitro Assay). Details: 72 h, read-out: DiMF Minimum Effective Dose (MED), approximately 72 hours incubation, microfilariae assessed for survival or paralysis.
Format: cell-based
Compound `CC(C)C[C@H]1C(=O)O[C@H](Cc2ccc(Cn3ccc(C#N)n3)cc2)C(=O)N(C)[C@@H](CC(C)C)C(=O)O[C@H](C)C(=O)N(C)[C@@H](CC(C)C)C(=O)O[C@H](Cc2ccc(Cn3ccc(C#N)n3)cc2)C(=O)N(C)[C@@H](CC(C)C)C(=O)O[C@H](C)C(=O)N1C` [Example 1b-103, 1,1′-(((((2R,5S,8R,11S,14R,17S,20R,23S)-5,11,17,23-tetraisobutyl-4,8,10,16,20,22-hexamethyl-3,6,9,12,15,18,21,24-octaoxo-1,7,13,19-tetraoxa-4,10,16,22-tetraazacyclotetracosane-2,14-diyl)bis(methylene))bis(4,1-phenylene))bis(methylene))bis(1H-pyrazole-3-carbonitrile)] has a minimal effective concentration of 0.001 to 0.01 µM. For `Cc1nn(Cc2ccc(C[C@H]3OC(=O)[C@H](CC(C)C)N(C)C(=O)[C@@H](C)OC(=O)[C@H](CC(C)C)N(C)C(=O)[C@@H](Cc4ccccc4)OC(=O)[C@H](CC(C)C)N(C)C(=O)[C@@H](C)OC(=O)[C@H](CC(C)C)N(C)C3=O)cc2)c(C)c1C(F)(F)F` [Example 2-81, (3S,6R,9S,12R,15S,18R,21S,24R)-6-benzyl-18-(4-((3,5-dimethyl-4-(trifluoromethyl)-1H-pyrazol-1-yl)methyl)benzyl)-3,9,15,21-tetraisobutyl-4,10,12,16,22,24-hexamethyl-1,7,13,19-tetraoxa-4,10,16,22-tetraazacyclotetracosan-2,5,8,11,14,17,20,23-octaone], the minimal effective concentration was 0.01 to 0.1 µM. In the case of `Cc1cnn(Cc2ccc(C[C@H]3OC(=O)[C@H](CC(C)C)N(C)C(=O)[C@@H](C)OC(=O)[C@H](CC(C)C)N(C)C(=O)[C@@H](Cc4ccc(Cn5cc(-c6ccc(F)cc6)cn5)cc4)OC(=O)[C@H](CC(C)C)N(C)C(=O)[C@@H](C)OC(=O)[C@H](CC(C)C)N(C)C3=O)cc2)c1` [Example 1a-22, (3S,6R,9S,12R,15S,18R,21S,24R)-6-(4-((4-(4-fluorophenyl)-1H-pyrazol-1-yl)methyl)benzyl)-3,9,15,21-tetraisobutyl-4,10,12,16,22,24-hexamethyl-18-(4-((4-methyl-1H-pyrazol-1-yl)methyl)benzyl)-1,7,13,19-tetraoxa-4,10,16,22-tetraazacyclotetracosan-2,5,8,11,14,17,20,23-octaone], the minimal effective concentration is reported as 0.01 to 0.1 µM. For `Cc1cn(Cc2ccc(C[C@H]3OC(=O)[C@H](CC(C)C)N(C)C(=O)[C@@H](C)OC(=O)[C@H](CC(C)C)N(C)C(=O)[C@@H](Cc4ccc(Cn5cc(C)nc5C)cc4)OC(=O)[C@H](CC(C)C)N(C)C(=O)[C@@H](C)OC(=O)[C@H](CC(C)C)N(C)C3=O)cc2)c(C)n1` [Example 6-5, (3S,6R,9S,12R,15S,18R,21S,24R)-6,18-bis(4-((2,4-dimethyl-1H-imidazol-1-yl)methyl)benzyl)-3,9,15,21-tetraisobutyl-4,10,12,16,22,24-hexamethyl-1,7,13,19-tetraoxa-4,10,16,22-tetraazacyclotetracosan-2,5,8,11,14,17,20,23-octaone], the minimal effective concentration was 0.01 to 0.1 µM. For `Cc1nn(Cc2ccc(C[C@H]3OC(=O)[C@H](CC(C)C)N(C)C(=O)[C@@H](C)OC(=O)[C@H](CC(C)C)N(C)C(=O)[C@@H](Cc4ccccc4)OC(=O)[C@H](CC(C)C)N(C)C(=O)[C@@H](C)OC(=O)[C@H](CC(C)C)N(C)C3=O)cc2)c(C)c1S(=O)(=O)N1CCCC1` [Example 2-40, (3S,6R,9S,12R,15S,18R,21S,24R)-6-benzyl-18-(4-((3,5-dimethyl-4-(pyrrolidin-1-ylsulfonyl)-1H-pyrazol-1-yl)methyl)benzyl)-3,9,15,21-tetraisobutyl-4,10,12,16,22,24-hexamethyl-1,7,13,19-tetraoxa-4,10,16,22-tetraazacyclotetracosan-2,5,8,11,14,17,20,23-octaone], the minimal effective concentration was 0.01 to 0.1 µM. `CC(C)C[C@H]1C(=O)O[C@H](Cc2ccc(Cn3ccc(CO)n3)cc2)C(=O)N(C)[C@@H](CC(C)C)C(=O)O[C@H](C)C(=O)N(C)[C@@H](CC(C)C)C(=O)O[C@H](Cc2ccc(Cn3ccc(CO)n3)cc2)C(=O)N(C)[C@@H](CC(C)C)C(=O)O[C@H](C)C(=O)N1C` [Example 1b-97, (3S,6R,9S,12R,15S,18R,21S,24R)-6,18-bis(4-((3-(hydroxymethyl)-1H-pyrazol-1-yl)methyl)benzyl)-3,9,15,21-tetraisobutyl-4,10,12,16,22,24-hexamethyl-1,7,13,19-tetraoxa-4,10,16,22-tetraazacyclotetracosan-2,5,8,11,14,17,20,23-octaone] showed a minimal effective concentration of 0.01 to 0.1 µM. In the case of `CC(C)C[C@H]1C(=O)O[C@H](Cc2ccc(Cn3cc(C(F)(F)F)cn3)cc2)C(=O)N(C)[C@@H](CC(C)C)C(=O)O[C@H](C)C(=O)N(C)[C@@H](CC(C)C)C(=O)O[C@H](Cc2ccccc2)C(=O)N(C)[C@@H](CC(C)C)C(=O)O[C@H](C)C(=O)N1C` [Example 2-20, (3S,6R,9S,12R,15S,18R,21S,24R)-6-benzyl-3,9,15,21-tetraisobutyl-4,10,12,16,22,24-hexamethyl-18-(4-((4-(trifluoromethyl)-1H-pyrazol-1-yl)methyl)benzyl)-1,7,13,19-tetraoxa-4,10,16,22-tetraazacyclotetracosan-2,5,8,11,14,17,20,23-octaone], the minimal effective concentration is reported as 0.01 to 0.1 µM. In the case of `Cc1cc(CC#N)nn1Cc1ccc(C[C@H]2OC(=O)[C@H](CC(C)C)N(C)C(=O)[C@@H](C)OC(=O)[C@H](CC(C)C)N(C)C(=O)[C@@H](Cc3ccc(Cn4nc(CC#N)cc4C)cc3)OC(=O)[C@H](CC(C)C)N(C)C(=O)[C@@H](C)OC(=O)[C@H](CC(C)C)N(C)C2=O)cc1` [Example 1b-7, 2,2′-((((((2R,5S,8R,11S,14R,17S,20R,23S)-5,11,17,23-tetraisobutyl-4,8,10,16,20,22-hexamethyl-3,6,9,12,15,18,21,24-octaoxo-1,7,13,19-tetraoxa-4,10,16,22-tetraazacyclotetracosane-2,14-diyl)bis(methylene))bis(4,1-phenylene))bis(methylene))bis(5-methyl-1H-pyrazole-1,3-diyl))diacetonitrile], the minimal effective concentration is reported as 0.001 to 0.01 µM. For `CC(C)C[C@H]1C(=O)O[C@H](Cc2ccc(Cn3cc(-c4cn(C)nn4)cn3)cc2)C(=O)N(C)[C@@H](CC(C)C)C(=O)O[C@H](C)C(=O)N(C)[C@@H](CC(C)C)C(=O)O[C@H](Cc2ccccc2)C(=O)N(C)[C@@H](CC(C)C)C(=O)O[C@H](C)C(=O)N1C` [Example 2-84, (3S,6R,9S,12R,15S,18R,21S,24R)-6-benzyl-3,9,15,21-tetraisobutyl-4,10,12,16,22,24-hexamethyl-18-(4-((4-(1-methyl-1H-1,2,3-triazol-4-yl)-1H-pyrazol-1-yl)methyl)benzyl)-1,7,13,19-tetraoxa-4,10,16,22-tetraazacyclotetracosan-2,5,8,11,14,17,20,23-octaone], the minimal effective concentration was 0.01 to 0.1 µM. `CC(C)C[C@H]1C(=O)O[C@H](Cc2cccc(Cn3nc(C4CC4)cc3C3CC3)c2)C(=O)N(C)[C@@H](CC(C)C)C(=O)O[C@H](C)C(=O)N(C)[C@@H](CC(C)C)C(=O)O[C@H](Cc2ccccc2)C(=O)N(C)[C@@H](CC(C)C)C(=O)O[C@H](C)C(=O)N1C` [Example 5-6, (3S,6R,9S,12R,15S,18R,21S,24R)-6-benzyl-18-(3-((3,5-dicyclopropyl-1H-pyrazol-1-yl)methyl)benzyl)-3,9,15,21-tetraisobutyl-4,10,12,16,22,24-hexamethyl-1,7,13,19-tetraoxa-4,10,16,22-tetraazacyclotetracosan-2,5,8,11,14,17,20,23-octaone] was tested, and the minimal effective concentration was 0.01 to 0.1 µM. For `CC(C)C[C@H]1C(=O)O[C@H](Cc2ccc(Cn3ccc(C4CCC4)n3)cc2)C(=O)N(C)[C@@H](CC(C)C)C(=O)O[C@H](C)C(=O)N(C)[C@@H](CC(C)C)C(=O)O[C@H](Cc2ccc(Cn3ccc(C4CCC4)n3)cc2)C(=O)N(C)[C@@H](CC(C)C)C(=O)O[C@H](C)C(=O)N1C` [Example 1b-106, (3S,6R,9S,12R,15S,18R,21S,24R)-6,18-bis(4-((3-cyclobutyl-1H-pyrazol-1-yl)methyl)benzyl)-3,9,15,21-tetraisobutyl-4,10,12,16,22,24-hexamethyl-1,7,13,19-tetraoxa-4,10,16,22-tetraazacyclotetracosan-2,5,8,11,14,17,20,23-octaone], the minimal effective concentration was 0.01 to 0.1 µM. Work on `CCOc1cnn(Cc2ccc(C[C@H]3OC(=O)[C@H](CC(C)C)N(C)C(=O)[C@@H](C)OC(=O)[C@H](CC(C)C)N(C)C(=O)[C@@H](Cc4ccc(CO)cc4)OC(=O)[C@H](CC(C)C)N(C)C(=O)[C@@H](C)OC(=O)[C@H](CC(C)C)N(C)C3=O)cc2)c1` [Example 2-39, (3S,6R,9S,12R,15S,18R,21S,24R)-6-(4-((4-ethoxy-1H-pyrazol-1-yl)methyl)benzyl)-18-(4-(hydroxymethyl)benzyl)-3,9,15,21-tetraisobutyl-4,10,12,16,22,24-hexamethyl-1,7,13,19-tetraoxa-4,10,16,22-tetraazacyclotetracosan-2,5,8,11,14,17,20,23-octaone] yielded a minimal effective concentration of 0.001 to 0.01 µM. In the case of `CC(C)C[C@H]1C(=O)O[C@H](Cc2ccc(Cn3nc(CO)cc3CO)cc2)C(=O)N(C)[C@@H](CC(C)C)C(=O)O[C@H](C)C(=O)N(C)[C@@H](CC(C)C)C(=O)O[C@H](Cc2ccccc2)C(=O)N(C)[C@@H](CC(C)C)C(=O)O[C@H](C)C(=O)N1C` [Example 2-42, (3S,6R,9S,12R,15S,18R,21S,24R)-6-benzyl-18-(4-((3,5-bis(hydroxymethyl)-1H-pyrazol-1-yl)methyl)benzyl)-3,9,15,21-tetraisobutyl-4,10,12,16,22,24-hexamethyl-1,7,13,19-tetraoxa-4,10,16,22-tetraazacyclotetracosan-2,5,8,11,14,17,20,23-octaone], the minimal effective concentration is reported as 0.01 to 0.1 µM. `CC(C)C[C@H]1C(=O)O[C@H](Cc2ccc(Cn3ccc4cccnc43)cc2)C(=O)N(C)[C@@H](CC(C)C)C(=O)O[C@H](C)C(=O)N(C)[C@@H](CC(C)C)C(=O)O[C@H](Cc2ccccc2)C(=O)N(C)[C@@H](CC(C)C)C(=O)O[C@H](C)C(=O)N1C` [Example 10-14, (3S,6R,9S,12R,15S,18R,21S,24R)-6-(4-((1H-pyrrolo[2,3-b]pyridin-1-yl)methyl)benzyl)-18-benzyl-3,9,15,21-tetraisobutyl-4,10,12,16,22,24-hexamethyl-1,7,13,19-tetraoxa-4,10,16,22-tetraazacyclotetracosan-2,5,8,11,14,17,20,23-octaone] showed a minimal effective concentration of 0.01 to 0.1 µM.

— patent publication US11331369B2, “Endoparasitic depsipeptides” (Zoetis Services LLC, priority 2017, dated 2022)
